Reference: ChEMBL document CHEMBL5244200, “MicroRNAs as novel endogenous targets for regulation and therapeutic treatments” (Medchemcomm, 2018)

Tests used:
MCF7 [1] = assay: Inhibition of miR-21 in human MCF7 cells assessed as fold increase at 10 uM by luciferase signalling assay; assay type: cell-based
MCF7 [2] = assay: Inhibition of miR-21 in human MCF7 cells assessed as fold increase in PDCD4 protein level; assay type: cell-based
MCF7 [3] = assay: Induction of apoptosis human MCF7 cells at 5 uM assessed as fold increase in apoptotic rate; assay type: functional
[4] = Effect on miR-96 in human MCF7 cells assessed as decrease in expression level at 40 uM relative to control; assay type: functional; parameters: scale not given: the % may be the effect or the level left
[5] = Activation of miR-122 (unknown origin) by luciferase assay
HepG2 = assay: Cytotoxicity against human HepG2 cells assessed as reduction in cell viability measured after 24 hrs at 10 uM relative to control; assay type: toxicity, cell-based; conditions: hepg2, 24 h
[6] = Inhibition of miRNA (unknown origin) by fluorescence polarization assay
[7] = Inhibition of miRNA (unknown origin)
[8] = Inhibition of pri-miR-122 (unknown origin) at 10 uM relative to control
Hepatitis C virus = assay: Antiviral activity against HCV; assay type: functional, Hepacivirus hominis
Huh7 (Homo sapiens) = assay: Inhibition of miR-122 in human Huh7 cells assessed as fold increase at 10 uM by luciferase signal
[9] = Inhibition of miR-122 (unknown origin) by luciferase signalling
[10] = Inhibition of miR-206 (unknown origin)
[11] = Inhibition of myomiRs (unknown origin)
[12] = Inhibition of mature miR-122 (unknown origin) at 10 uM relative to control
[13] = Inhibition of miR-122 (unknown origin)
MCF7 [14] = assay: Inhibition of miR-27a (unknown origin) transfected in human MCF7 cells assessed as fold increase at 20 uM by luciferase assay; assay type: cell-based
pre-miR-544 (human) = assay: Effect on pre-miR-544 in human MCF-10A cells assessed as fold increasing level
miR-544 (human) = assay: Effect on miR-544 in human MCF-10A cells assessed as reduction in expression level relative to control; parameters: scale not given: the % may be the effect or the level left
[15] = Induction of human MDA-MB-231 cells assessed as induces increasing in apoptotic rate by western blot analysis relative to control; assay type: functional
HCT-116 = assay: Antiproliferative activity against human HCT-116 cells assessed as reduction in cell viability measured after 72 hrs by MTT assay; assay type: functional, cell-based; conditions: HCT-116, 72 h
[16] = Activation of miRNA (unknown origin)
[17] = Inhibition of miR-210 (unknown origin)
[18] = Upregulation of GPD1L in human MDA-MB-231 cells assessed as fold increase in expression level; assay type: functional
[19] = Effect on pre-miR-210 in human MDA-MB-231 cells assessed as fold increase at 200 nM; assay type: functional
[20] = In vivo inhibition of miR-210 in human MDA-MB-231 cells xenografted with SCID mouse assessed as reduction in protein level under hypoxia condition relative to control; assay type: functional; parameters: scale not given: the % may be the effect or the level left
[21] = In vivo inhibition of miR-210 in human MDA-MB-231 cells xenografted with SCID mouse assessed as reduction in […] level at 20 pmol relative to control; parameters: scale not given: the % may be the effect or the level left
[22] = Effect on pri-miR-210 in human MDA-MB-231 cells assessed as fold increase at 200 nM; assay type: functional
[23] = Inhibition of miR-21 in human HeLa cells assessed as inhibition; assay type: cell-based
HeLa = assay: Inhibition of pri-miR-21 in human HeLa cells assessed as reduction in expression level at 10 uM relative to control; assay type: cell-based

In the case of `CN[C@@H]1[C@H](O[C@H]2[C@H](O[C@H]3[C@H](O)[C@@H](O)[C@H](N=C(N)N)[C@@H](O)[C@@H]3N=C(N)N)O[C@@H](C)[C@]2(O)C=O)O[C@@H](CO)[C@H](O)[C@H]1O` [STREPTOMYCIN], the fold change (FC) (MCF7 [1]) is reported as 1.4, the fold change (FC) (MCF7 [2]) is reported as 2 and the “fold change (FC)” value (MCF7 [3]) is reported as 2.

Work on `CN1CCN(c2ccc3nc(-c4cc(C(C)(C)C)c(OCCCC(=O)NCCCN=[N+]=[N-])c(C(C)(C)C)c4)[nH]c3c2)CC1` yielded an Activity [4] of 90%.

Work on `CN(C)CCN1C(=O)c2cccc3cccc(c23)C1=O` yielded an EC50 [5] of 3 µM and an Activity (HepG2) of 80%.

With `O=C(O)C1=CC(=C(c2ccc(O)c(C(=O)O)c2)c2ccc(O)c(C(=O)O)c2)C=CC1=O` [AURINTRICARBOXYLIC ACID] the IC50 [6] was 0.47 µM and the IC50 [7] was 0.47 µM.

In the case of `O=S(=O)(c1ccc2c(c1)CCCN2)N1CCC[C@H]2CCCC[C@@H]21`, the inhibition [8] is reported as 90%, the Activity (Hepatitis C virus) is reported as 50% and the fold change (FC) (Huh7 (Homo sapiens)) is reported as 12.5. It also gave an IC50 [9] of 0.6 µM.

`COC12C(=O)c3ccccc3C(=O)C1C(c1ccccc1)=C2c1ccc(OC(=O)OC(C)(C)C)c2ncccc12` (configuration not stated) gave an IC50 [10] of 5 µM and an IC50 [11] of 2.5 µM.

`O=C(Nc1ccc2ccccc2c1)c1ccc(Cl)cc1Cl` showed an inhibition [12] of 50%, an Activity (Hepatitis C virus) of 50% and an IC50 [13] of 3 µM. For the same compound, the fold change (FC) (Huh7 (Homo sapiens)) was 7.7.

For `NC[C@@H]1O[C@H](O[C@H]2[C@@H](O)[C@H](O[C@@H]3[C@@H](O)[C@H](N)C[C@H](N)[C@H]3O[C@H]3O[C@H](CN)[C@@H](O)[C@H](O)[C@H]3N)O[C@@H]2CO)[C@H](N)[C@@H](O)[C@@H]1O`, the fold change (FC) (MCF7 [14]) was 1.2.

For `N#Cc1c(N2CCCC2)nc(N)c2c(N)nc(N3CCCC3)cc12`, the “fold change (FC)” value (pre-miR-544 (human)) was 2, the Activity (miR-544 (human)) was 90% and the Activity [15] was 60%.

Compound `CCn1cc(C(=O)O)c(=O)c2cc(F)c(N3CCNCC3)nc21` [ENOXACIN] has an EC50 (HCT-116) of 124 µM and an EC50 [16] of 30 µM.

In the case of `CN1CCN(c2ccc3nc(-c4ccc5[nH]c(-c6cccc(OCCCC(=O)NCCN=[N+]=[N-])c6)nc5c4)[nH]c3c2)CC1`, the IC50 [17] is reported as 0.2 µM, the “fold change (FC)” value [18] is reported as 5 and the “fold change (FC)” value [19] is reported as 2.6. The Activity [20] was 90%, the Activity [21] was 75% and the “fold change (FC)” value [22] was 3.

With `C#CCNC(=O)c1ccc(/N=N/c2ccc(N)cc2)cc1` the EC50 [23] was 2 µM and the inhibition (HeLa) was 80%.
